Our source for the IC50 values is US11345681B1, “Inhibitors of fibroblast growth factor receptor kinases” (Kinnate Biopharma Inc., priority 2020, dated 2022).

This test concerns the target Wild type FGFR2 (Homo sapiens (Human), UniProt P21802). Put plainly: FGFR2 kinase assay (fluorescence-based microfluidic mobility shift assay). Format: biochemical. As to conditions: wild type FGFR2 0.06 nM, 100 μM ATP, 80 minutes at room temperature.

Sequence of Wild type FGFR2 (P21802 22-821): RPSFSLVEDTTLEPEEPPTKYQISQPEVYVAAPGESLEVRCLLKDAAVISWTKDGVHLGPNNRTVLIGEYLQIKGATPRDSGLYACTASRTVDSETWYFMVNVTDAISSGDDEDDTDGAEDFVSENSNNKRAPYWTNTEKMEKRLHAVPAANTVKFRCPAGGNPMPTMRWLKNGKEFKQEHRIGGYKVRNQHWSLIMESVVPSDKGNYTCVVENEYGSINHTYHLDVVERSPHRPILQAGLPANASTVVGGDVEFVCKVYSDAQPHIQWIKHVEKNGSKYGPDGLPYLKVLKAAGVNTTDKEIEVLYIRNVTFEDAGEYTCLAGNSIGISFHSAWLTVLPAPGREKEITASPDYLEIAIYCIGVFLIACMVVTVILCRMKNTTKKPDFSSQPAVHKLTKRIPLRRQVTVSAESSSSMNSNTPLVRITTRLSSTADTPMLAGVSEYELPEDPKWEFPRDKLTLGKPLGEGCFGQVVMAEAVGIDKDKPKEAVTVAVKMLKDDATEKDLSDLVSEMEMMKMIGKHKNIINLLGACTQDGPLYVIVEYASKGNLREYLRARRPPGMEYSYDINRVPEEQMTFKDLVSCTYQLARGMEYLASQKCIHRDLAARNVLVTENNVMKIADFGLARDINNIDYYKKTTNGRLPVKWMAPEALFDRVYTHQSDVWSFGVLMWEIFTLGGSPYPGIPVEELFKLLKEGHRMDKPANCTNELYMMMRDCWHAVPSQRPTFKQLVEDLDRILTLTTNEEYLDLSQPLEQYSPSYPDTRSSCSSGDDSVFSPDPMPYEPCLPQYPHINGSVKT

Usually IC50 stands for the concentration that gives 50% inhibition. As to `C=CC(=O)N1C[C@@H](n2nc(C#Cc3ccn4nccc4n3)c(C(N)=O)c2NC)C[C@@H]1COC` [Example 53, 1-[(3S,5R)-5-(Methoxymethyl)-1-(prop-2-enoyl)pyrrolidin-3-yl]-5-(methylamino)-3-(2-[pyrazolo[1,5-a]pyrimidin-5-yl]ethynyl)pyrazole-4-carboxamide], the IC50 (class symbols) lay within 100 to 1000 nM.

For `C=CC(=O)N1C[C@@H](n2nc(C#Cc3ccn4ccnc4c3)c(C(N)=O)c2NC)C[C@@H]1COC` [Example 54, 1-((3S,5R)-1-Acryloyl-5-(methoxymethyl)pyrrolidin-3-yl)-3-(imidazo[1,2-a]pyridin-7-ylethynyl)-5-(methylamino)-1H-pyrazole-4-carboxamide], under “class symbols”, the IC50 was ≤ 100 nM.

As for `C=CC(=O)N1C[C@@H](n2nc(C#Cc3ccc4nccn4c3)c(C(N)=O)c2NC)C[C@@H]1COC` [Example 55, 1-((3S,5R)-1-Acryloyl-5-(methoxymethyl)pyrrolidin-3-yl)-3-(imidazo[1,2-a]pyridin-6-ylethynyl)-5-(methylamino)-1H-pyrazole-4-carboxamide], the IC50 (given as numeric bound) was > 500 nM.

On to `C=CC(=O)N1C[C@@H](n2nc(C#Cc3ccn4nccc4c3)c(C(N)=O)c2NC)C[C@@H]1COC` [Example 56, 1-[(3S,5R)-5-(Methoxymethyl)-1-(prop-2-enoyl)pyrrolidin-3-yl]-5-(methylamino)-3-(2-[pyrazolo[1,5-a]pyridin-5-yl]ethynyl)pyrazole-4-carboxamide], for which, where the note is “class symbols”, the IC50 was ≤ 100 nM.

Regarding `C=CC(=O)N1C[C@@H](n2nc(C#Cc3cnc4nccn4c3)c(C(N)=O)c2NC)C[C@@H]1COC` [Example 57, 3-(2-[Imidazo[1,2-a]pyrimidin-6-yl]ethynyl)-1-[(3S,5R)-5-(methoxymethyl)-1-(prop-2-enoyl)pyrrolidin-3-yl]-5-(methylamino)pyrazole-4-carboxamide], the IC50 (given as numeric bound) is > 500 nM.

As to `C=CC(=O)N1C[C@@H](n2nc(C#Cc3ccn4ccnc4n3)c(C(N)=O)c2NC)C[C@@H]1COC` [Example 58, 3-(2-[Imidazo[1,2-a]pyrimidin-7-yl]ethynyl)-1-[(3S,5R)-5-(methoxymethyl)-1-(prop-2-enoyl)pyrrolidin-3-yl]-5-(methylamino)pyrazole-4-carboxamide], under “given as numeric bound”, the IC50 is > 500 nM.

For the compound `C=CC(=O)N1C[C@@H](n2nc(C#Cc3c(F)cc4[nH]c(C5CC5)nc4c3F)c(C(N)=O)c2NC)C[C@@H]1COC` [Example 61, 3-[2-(2-Cyclopropyl-4,6-difluoro-1H-1,3-benzodiazol-5-yl)ethynyl]-1-[(3S,5R)-5-(methoxymethyl)-1-(prop-2-enoyl)pyrrolidin-3-yl]-5-(methylamino)pyrazole-4-carboxamide], under “class symbols”, the IC50 was ≤ 100 nM.

On to `C=CC(=O)N1C[C@@H](n2nc(C#Cc3cc4nc(C5CC5)n(C)c4cc3F)c(C(N)=O)c2NC)C[C@@H]1COC` [Example 62, 3-[2-(2-Cyclopropyl-6-fluoro-1-methyl-1,3-benzodiazol-5-yl)ethynyl]-1-[(3S,5R)-5-(methoxymethyl)-1-(prop-2-enoyl)pyrrolidin-3-yl]-5-(methylamino)pyrazole-4-carboxamide], for which the IC50 (class symbols) is ≤ 100 nM.

For `C=CC(=O)N1C[C@@H](n2nc(C#Cc3cc4nc(C5CC5)n(C)c4cn3)c(C(N)=O)c2NC)C[C@@H]1COC` [Example 63, 3-(2-[2-Cyclopropyl-3-methylimidazo[4,5-c]pyridin-6-yl]ethynyl)-1-[(3S,5R)-5-(methoxymethyl)-1-(prop-2-enoyl)pyrrolidin-3-yl]-5-(methylamino)pyrazole-4-carboxamide], for the setting “given as numeric bound”, the IC50 is > 500 nM.

In the case of `C=CC(=O)N1C[C@@H](n2nc(C#Cc3ccc4nccnc4c3)c(C(N)=O)c2NC)C[C@@H]1COC` [Example 64, 1-[(3S,5R)-5-(Methoxymethyl)-1-(prop-2-enoyl)pyrrolidin-3-yl]-5-(methylamino)-3-[2-(quinoxalin-6-yl)ethynyl] pyrazole-4-carboxamide], the IC50 (class symbols) is ≤ 100 nM.

For `C=CC(=O)N1C[C@@H](n2nc(C#Cc3ccc4cc(C)cnc4c3)c(C(N)=O)c2NC)C[C@@H]1COC` [Example 65, 1-((3S,5R)-1-Acryloyl-5-(methoxymethyl)pyrrolidin-3-yl)-5-(methylamino)-3-((3-methylquinolin-7-yl)ethynyl)-1H-pyrazole-4-carboxamide], under “class symbols”, the IC50 was ≤ 100 nM.

On to `C=CC(=O)N1C[C@@H](n2nc(C#Cc3ccc4ccnn4c3)c(C(N)=O)c2NC)C[C@@H]1COC` [Example 67, 1-[(3S,5R)-5-(Methoxymethyl)-1-(prop-2-enoyl)pyrrolidin-3-yl]-5-(methylamino)-3-(2-[pyrazolo[1,5-a]pyridin-6-yl]ethynyl)pyrazole-4-carboxamide], for which the IC50 (class symbols) is ≤ 100 nM.

`C=CC(=O)N1C[C@@H](n2nc(C#Cc3ccc4c(ncn4CC)c3F)c(C(N)=O)c2NC)C[C@@H]1COC` [Example 68, 1-((3S,5R)-1-Acryloyl-5-(methoxymethyl)pyrrolidin-3-yl)-3-((1-ethyl-4-fluoro-1H-benzo[d]imidazol-5-yl)ethynyl)-5-(methylamino)-1H-pyrazole-4-carboxamide]: the IC50 (class symbols) is ≤ 100 nM.

With `C=CC(=O)N1C[C@@H](n2nc(C#Cc3ccc4nc(C)cnc4c3)c(C(N)=O)c2NC)C[C@@H]1COC` [Example 69, 1-((3S,5R)-1-Acryloyl-5-(methoxymethyl)pyrrolidin-3-yl)-5-(methylamino)-3-((2-methylquinoxalin-6-yl)ethynyl)-1H-pyrazole-4-carboxamide], the IC50 (class symbols) is ≤ 100 nM.

With `C=CC(=O)N1C[C@@H](n2nc(C#Cc3ccc4c(c3)ncn4C(F)F)c(C(N)=O)c2NC)C[C@@H]1COC` [Example 70, 3-[2-[1-(Difluoromethyl)-1,3-benzodiazol-5-yl]ethynyl]-1-[(3S,5R)-5-(methoxymethyl)-1-(prop-2-enoyl)pyrrolidin-3-yl]-5-(methylamino)pyrazole-4-carboxamide], where the note is “class symbols”, the IC50 is ≤ 100 nM.

As for `C=CC(=O)N1C[C@@H](n2nc(C#Cc3ccc4c(ncn4C)c3F)c(C(N)=O)c2NC)C[C@@H]1COC` [Example 71, 1-((3S,5R)-1-Acryloyl-5-(methoxymethyl)pyrrolidin-3-yl)-3-((4-fluoro-1-methyl-1H-benzo[d]imidazol-5-yl)ethynyl)-5-(methylamino)-1H-pyrazole-4-carboxamide], under “class symbols”, the 50% inhibitory concentration (IC50) is ≤ 100 nM.

As for `C=CC(=O)N1C[C@@H](n2nc(C#Cc3ccc4ncc(C)nc4c3)c(C(N)=O)c2NC)C[C@@H]1COC` [Example 72, 1-((3S,5R)-1-Acryloyl-5-(methoxymethyl)pyrrolidin-3-yl)-5-(methylamino)-3-((3-methylquinoxalin-6-yl)ethynyl)-1H-pyrazole-4-carboxamide], where the note is “class symbols”, the IC50 was ≤ 100 nM.

As to `C=CC(=O)N1C[C@@H](n2nc(C#Cc3ccc4ncn(C(F)F)c4c3)c(C(N)=O)c2NC)C[C@@H]1COC` [Example 73, 3-[2-[3-(Difluoromethyl)-1,3-benzodiazol-5-yl]ethynyl]-1-[(3S,5R)-5-(methoxymethyl)-1-(prop-2-enoyl)pyrrolidin-3-yl]-5-(methylamino)pyrazole-4-carboxamide], the IC50 (class symbols) is ≤ 100 nM.

Consider `C=CC(=O)N1C[C@@H](n2nc(C#Cc3ccc4c(C)ccnc4c3)c(C(N)=O)c2NC)C[C@@H]1COC` [Example 74, 1-[(3S,5R)-5-(Methoxymethyl)-1-(prop-2-enoyl)pyrrolidin-3-yl]-5-(methylamino)-3-[2-(4-methylquinolin-7-yl)ethynyl]pyrazole-4-carboxamide], for which, where the note is “class symbols”, the IC50 was ≤ 100 nM.
